According to patent US5488068A, “Aminobiphenyl-4-ol anti-atherosclerotic compounds and method” (Bristol-Myers Squibb Company, priority 1994, dated 1996):

How the values were obtained:
LDL [1] = details: rabbit, in vivo; cited from earlier work
aortic lesions = details: cited from earlier work
arterial lesion = details: animal models of atherosclerosis, high doses; cited from earlier work
LDL [2] = assay: Ex vivo LDL oxidation susceptibility assay in hamsters after 2 weeks oral administration; details: hamster; for ex vivo LDL oxidation initial rate / ex vivo LDL oxidation lag time: oral in diet, mean of 4 to 6 hamsters
From the text: (§1) The initial and later stages of LDL oxidation can be distinguished kinetically in vitro by measuring the formation of lipid conjugated diene oxidation products (ref. 10). By analogy to the behavior of antioxidants in simple single-phase systems (ref. 11), in vitro test systems were established to quantitate the protective effects of pure chemical compounds on Cu^++ -dependent LDL oxidation initial rate and lag phase. Both in vitro and ex vivo methods were employed to incorporate compounds into LDL. The magnitude of the decrease in the initial rate of conjugated diene formation was used as an estimate of the intrinsic LDL antioxidant potency of the test compound. The magnitude of the increase in lag time for the propagation phase of the oxidation chain reaction was used as an estimate of the effective concentration within LDL of the test compound. By this approach, quantitative estimation of the LDL antioxidant activity of compounds was used to identify chain-terminating antioxidants appropriate for testing in an in vivo atherosclerosis animal model.
(§2) A plasma incorporation technique was used in this procedure to test for the partitioning of a compound into LDL and its retention during LDL isolation by ultracentrifugation and dialysis. The antioxidant activity remaining in LDL was then assayed by measuring the initial rate of Cu^++ -dependent conjugated diene formation, and the lag time before extensive formation of conjugated diene oxidation products. Incorporation of test compounds into LDL in vitro was achieved by addition of an aliquot of compound (final concentration 25 μM) in DMSO to aliquots of pooled human plasma previously dialyzed overnight in buffer 1 (10 mM HEPES, 150 mM NaCl, pH 7.2) and adjusted to d=1.019 with solid KBr, and incubating for 60 min at 37°. LDL was then isolated from plasma as the ([…] to d=1.063 g/ml) fraction by standard sequential flotation techniques using KBr solution discontinuous density gradients in an ultracentrifuge by a method adapted from the original procedure of Havel (J. Clin. Invest. 34:1345). The isolated LDL was dialyzed for 1 hour into buffer 1, and aliquots were added to cuvettes at 100 μg protein/ml in buffer 1. Oxidation reactions were initiated with CuSO4 (2.5 μM) at 20°. The LDL initial oxidation rate and lag time were measured by continuous monitoring of absorbance at 234 nm in a Beckman DU-7500 spectrophotometer. The initial oxidation rate was calculated as the slope of the linear regression curve of A234 vs. time over the first ~60 min. Percent of control was calculated for test compound vs. DMSO vehicle controls. Lag time was calculated as the time corresponding to the maximum value of the first derivative of the A234 vs. time curve. The value of the lag time from the A234 vs. time curve for test compounds compared to vehicle control was expressed as percent of control. Results are given in Table 2; a decrease vs. control in the initial rate, and an increase vs. control in the lag time, reflect an active antioxidant.
Compounds were administered orally to hamsters for 2 weeks using the same diet described for the atherosclerosis studies (part D.) At 2 weeks, hamsters were fasted overnight, blood was collected, and LDL was isolated as described above (part B). The same assay methods described above (part B.) were then used to obtain ex vivo LDL oxidation initial rate and lag time values. Results are given in Table 3; a decrease vs. control in the initial rate, and an increase in the lag time, reflect an active antioxidant.

human LDL [3] = assay: Primary in vitro screen: inhibition of initial rate of Cu++-dependent LDL lipid oxidation, compound directly added to LDL; format: biochemical; details: CuSO4 10 μM, 37°, 90 min
From the text: as §1
This procedure determined the ability of test compounds added directly to LDL to inhibit the initial rate of LDL lipid oxidation monitored by conjugated diene content. The initial rate of conjugated diene formation was approximately linear with respect to time for approximately 2 hours under the conditions employed, prior to the end of the lag phase characterized by rapid propagation of the radical chain reaction and a corresponding large increase in conjugated diene content of the LDL sample. In the assay, aliquots of compounds dissolved in DMSO (and DMSO vehicle controls) were directly added to isolated human LDL (600 μg protein/mL) in Buffer 1 (10 mM HEPES, 150 mM NaCl, pH 7.2), and incubated at 37° for 60 min. Duplicate samples were then subjected to controlled oxidation by addition of CuSO4 (10 μM) and incubation at 37° for 0 or 90 min. The reaction was quenched by diluting with 5 volumes of buffer 1 plus EDTA (20 μM final) at 0° -4°. The conjugated diene levels in the LDL samples, a quantitative indicator of lipid peroxidation rate and extent, was determined spectrophotometrically by absorbance at 234 nm for each sample at 0 min and at 90 min time points of the CuSO4 incubation. […] Results are given in Table 1; a decrease vs. control reflects an active antioxidant.

human LDL [4] = assay: Secondary in vitro screen: LDL oxidation initial rate and lag time after in vitro plasma incorporation of compound into LDL; format: biochemical; details: 25 μM in plasma incorporation; CuSO4 2.5 μM, 20°
From the text: as §1, §2

LDL [5] = details: animal models of atherosclerosis, high doses; cited from earlier work
[6] = system: aortic foam cell atherosclerosis lesion; assay: In vivo atherosclerosis model in hamsters: aortic foam cell lesion size after 10 weeks; details: hamster; for aortic lesion size: oral in diet, mean ± SEM, n=12
Experimental: Atherosclerosis in hamsters is confined initially to a lesion prone area along the inner curvature of the aortic arch. Early atherogenesis in this region is characterized by the infiltration of monocytes which become lipid-filled macrophage foam cells, which can develop into complex fibrous atheromas. Antioxidants selected from primary and secondary in vitro screens and ex vivo assays were tested for their ability to inhibit macrophage foam cell lesion formation in hamsters in 10 weeks studies. Lesion size was assayed by video microscopy/image analysis of histological specimens of the aortic arch stained with the lipophilic dye, oil red O. Hamsters were maintained on a diet deficient in vitamins E, C, and K/menadione, selenium, and carotenoids, and supplemented with vitamin E-stripped corn oil (10%) and cholesterol (0.4%). This diet amplified oxidant stress while only moderately elevating plasma cholesterol and LDL levels. Test compounds were administered in this diet fed ad libitum for 10 weeks. The dosages are given as mg/kg/day based on food consumption measurements and weight of the animals at the end of the 10 week dosing period. […] Results are given in Table 4; a decrease in lesion size relative to control indicates an effective anti-atherosclerotic agent.

| SMILES | protection of LDL from oxidation (LDL [1]) | aortic lesions in rabbits (aortic lesions) | LDL oxidation initial rate (human LDL [3]; 1.0 μM) | LDL oxidation initial rate (human LDL [4]) | LDL oxidation lag time (human LDL [4]) | ex vivo LDL oxidation initial rate (LDL [2]; 60 mg/kg/day) | ex vivo LDL oxidation lag time (LDL [2]; 60 mg/kg/day) | other results |
| --- | --- | --- | --- | --- | --- | --- | --- | --- |
| Cc1cc(C(C)(C)C)c(O)c(C(C)(C)C)c1 [butylated hydroxytoluene (BHT), butylated hydroxytoluene] | protect LDL from oxidation | decrease aortic lesions in rabbits | – | – | – | – | – | – |
| CC(C)(Sc1cc(C(C)(C)C)c(O)c(C(C)(C)C)c1)Sc1cc(C(C)(C)C)c(O)c(C(C)(C)C)c1 [probucol] | – | – | 79 % of control | 17.6 % of control | 293 % of control | – | – | arterial lesion size (arterial lesion): decreased arterial lesion size; ex vivo LDL oxidation initial rate (LDL [2]; 120 mg/kg/day): 70 % of control; ex vivo LDL oxidation lag time (LDL [2]; 120 mg/kg/day): 141 % of control; oxidation of LDL in vivo (LDL [5]): decrease oxidation of LDL in vivo; aortic lesion size ([6]; 120 mg/kg/day): 59.4 ± 6.4 % of control |
| CN(C)c1cc(-c2ccccc2)ccc1O [Example 1, 3-(Dimethylamino)[1,1'-biphenyl]-4-ol] | – | – | 42.2 % of control | 17.9 % of control | 237 % of control | 17 % of control | 482 % of control | ex vivo LDL antioxidant activity relative to probucol and BHA (LDL [2]; oral): markedly more active in this model than the reference agents probucol and BHA; LDL oxidation initial rate (human LDL [3]; 0.30 μM): 66.2 % of control; LDL oxidation initial rate (human LDL [3]; 3.0 μM): 34.0 % of control; LDL oxidation initial rate (human LDL [3]; 10 μM): 1.7 % of control; anti-atherosclerotic effectiveness relative to probucol ([6]; oral): markedly more effective than the reference agent probucol; aortic lesion size ([6]; 3 mg/kg/day): 71.7 ± 13.7 % of control; aortic lesion size ([6]; 60 mg/kg/day): 46.2 ± 6.2 % of control |
| c1ccc(Nc2ccc(Nc3ccccc3)cc2)cc1 [N,N'-diphenylphenylenediamine (DPPD), N,N'-diphenylphenylenediamine] | protect LDL from oxidation | decrease aortic lesions in rabbits | – | – | – | – | – | – |
| COc1ccc(O)c(C(C)(C)C)c1 [BHA, butylated hydroxyanisole] | – | – | 16 % of control | 11.0 % of control | 239 % of control | 77 % of control | 116 % of control | – |
